Values of other authors, collected in patent publication US20170364630A1, “IDENTIFICATION OF CELLULAR ANTIMICROBIAL DRUG TABLETS THROUGH INTERACTOME ANALYSIS” (Vanderbilt University, priority 2014, published 2017).
pEC50, pIC50: −log10 of the molar value. ≈ marks a conversion by molar mass, not a printed value.

Experiments:
hepatitis C virus (HCV) = conditions: cell-based quantitative high-throughput screening, He et al. 2015; read-out: EC50, anti-HCV activity
HIV-1 [1] = conditions: approximate value, Guendel et al. 2010; read-out: IC50, inhibitor of HIV-1
[2] = system: Ebola-related genes (MERTK, FURIN, TYRO3, CTSB, NADK, POLH, TAPT1); conditions: CMap data, FIG. 8
HIV-1 [3] = conditions: Szlavik et al. 2004
[4] = system: poliovirus-infected HeLa cells
human enterovirus 71 = conditions: human enterovirus 71-infected mice
calcium channel protein = conditions: Fish and Antzelevitch 2004
[5] = biological target: HIV-1 reverse transcriptase (Human immunodeficiency virus type 1 group M subtype B, UniProt P04585); conditions: Tan et al. 1991; read-out: IC50 against the HIV-1 reverse transcriptase

Clc1ccc(Cn2c(CN3CCCC3)nc3ccccc32)cc1 [clemizole]
pEC50 (hepatitis C virus (HCV)): 5.15

CN1CCCN(C(c2ccccc2)c2ccc(Cl)cc2)CC1 (stereo not drawn) [homochlorcyclizine]
pEC50 (hepatitis C virus (HCV)): 6.33

O=C1Cc2c([nH]c3ccc([N+](=O)[O-])cc23)-c2ccccc2N1 [alsterpaullone]
pIC50 (HIV-1 [1]): ~6.82

CC1(C)S[C@@H]2[C@H](NC(=O)[C@H](NC(=O)N3CCNC3=O)c3ccccc3)C(=O)N2[C@H]1C(=O)O [azlocillin]
Down-regulated host genes following drug treatment [2]: TAPT1 and TYRO3 | Up-regulated host genes following drug treatment [2]: NADK and POLH

CN1C(C(=O)Nc2ccccn2)=C(O)c2ccccc2S1(=O)=O [piroxicam]
Up-regulated host genes following drug treatment [2]: FURIN and MERTK

O[C@H]1[C@H]2c3cc4c(cc3CN3CCC(=C[C@@H]1O)[C@H]23)OCO4 [lycorine]
IC50, anti-HIV-1 activity in MT4 cells (HIV-1 [3]): 0.4 µg/mL (≈ 1.39 µM) | Effect on viral protein synthesis [4]: inhibits viral protein synthesis | Effect on mortality of infected mice (human enterovirus 71): reduces mortality

CC[C@H]1[C@@H]2C[C@H]3[C@@H]4N(C)c5ccccc5[C@]45C[C@@H]([C@H]2[C@H]5O)N3[C@@H]1O [ajmaline]
Concentration exerting comparable pharmacological activity by inhibiting calcium channel protein activity (calcium channel protein): ≤ 20 μM | Up-regulated host genes following drug treatment [2]: MERTK, FURIN, TYRO3, FURIN, and CTSB

C[n+]1cc2c3c(ccc2c2ccc4cc5c(cc4c21)OCO5)OCO3 [sanguinarine nitrate]
pIC50 [5]: 3.35 to 3.82
